Source: PubChem BioAssay (NCI)
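Growth conditions: 96-well plates. Treatment: test compound, 48 hours, 5 concentrations. Analysis: linear interpolation between bracketing concentrations; unreached endpoints set to highest concentration. Abbreviation: GI50, concentration required for 50% inhibition of growth. At the TGI there is no net growth.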

Experiments:
Experiment in all cases: NCI anticancer screen, dose series, 48 h
OVCAR-8 ovarian = test system: OVCAR-8 ovarian
A549 NSCLC = test system: A549 NSCLC
NCI-H23 lung = test system: NCI-H23 lung
KM12 colon = test system: KM12 colon
CAKI-1 renal = test system: CAKI-1 renal
HCT-15 colon = test system: HCT-15 colon
NCI-H460 lung = test system: NCI-H460 lung
UACC-257 melanoma = test system: UACC-257 melanoma
OVCAR-4 ovarian = test system: OVCAR-4 ovarian
TK-10 renal = test system: TK-10 renal

Row | SMILES | TGI (OVCAR-8 ovarian) | TGI (A549 NSCLC) | TGI (NCI-H23 lung) | TGI (KM12 colon) | TGI (CAKI-1 renal) | TGI (HCT-15 colon) | TGI (NCI-H460 lung) | TGI (UACC-257 melanoma) | TGI (OVCAR-4 ovarian) | TGI (TK-10 renal) | GI50 (OVCAR-8 ovarian) | GI50 (A549 NSCLC) | GI50 (NCI-H23 lung) | GI50 (KM12 colon) | GI50 (CAKI-1 renal) | GI50 (HCT-15 colon) | GI50 (NCI-H460 lung) | GI50 (UACC-257 melanoma) | GI50 (OVCAR-4 ovarian) | GI50 (TK-10 renal)
1 | CC1CC(c2ccccc2)=Nc2ccccc2S1(=O)=O (stereo not drawn) | 43.9 µM | 55.6 µM | 30.8 µM | 31.3 µM | 48.5 µM | 54.2 µM | 34.9 µM | 23.8 µM | 38.3 µM | 47.7 µM |  |  |  |  |  |  |  |  |  | 
2 | COc1cc2c(cc1OCc1ccccc1)N=C[C@@H]1C/C(=C/C(=O)NCCCN3C(=O)c4cccc5cccc(c45)C3=O)CN1C2=O |  | > 100 µM | 1.89 µM | 6.59 µM | 19.7 µM | > 100 µM | 7.15 µM |  | > 100 µM | 3.43 µM | 1.22 µM | 3.05 µM | 0.352 µM | 1.09 µM | 2.14 µM | 3.96 µM | 0.603 µM | 2.26 µM | 2.63 µM | 0.466 µM
3 | COc1cc(/C=C/c2cc(C(F)(F)F)[nH]c(=O)n2)ccc1OCc1ccccc1F | 48.8 µM | 40.3 µM | 31.9 µM | 26.2 µM | 42.3 µM | 28.3 µM | 39.3 µM | 31.3 µM | 67.9 µM | 39.1 µM | 8.85 µM | 6.97 µM | 10.5 µM | 11.8 µM | 11.3 µM | 5.22 µM | 4.44 µM | 7.51 µM | 7.6 µM | 18 µM
4 | Cc1nn(C(=O)c2ccccc2O)c2c1C(c1ccccc1)SC(N)=N2 (stereo not drawn) | > 10 µM | > 10 µM | > 10 µM | > 10 µM | > 10 µM | > 10 µM | > 10 µM | > 10 µM | > 10 µM | > 10 µM |  |  |  |  |  |  |  |  |  | 
5 | CCCCC#COP(=O)(OCC)OCC | > 100 µM | > 100 µM | > 100 µM | > 100 µM | > 100 µM | > 100 µM | > 100 µM | > 100 µM | > 100 µM | > 100 µM |  |  |  |  |  |  |  |  |  | 
6 | CN(C)c1ccc(/C=C2\Oc3cc(O)ccc3C2=O)cc1 | > 100 µM | > 100 µM | > 100 µM | > 100 µM | > 100 µM | > 100 µM | > 100 µM | > 100 µM | > 100 µM | > 100 µM |  |  |  |  |  |  |  |  |  | 
7 | C=CC(=O)N1CCCC(n2nc(-c3ccc(Oc4ccccc4)cc3)c3c(N)ncnc32)C1 (stereo not drawn) | 20.4 µM | 26 µM | 28.7 µM | 22 µM | 10.6 µM | 28.9 µM | 31 µM | 20.5 µM | 21.2 µM | 3.94 µM | 6.56 µM | 11.9 µM | 12.1 µM | 8.73 µM | 0.107 µM | 12.6 µM | 14.3 µM | 6.82 µM | 7.12 µM | 0.0615 µM
8 | Cc1cc(/C=C2\SC(=Nc3ccccc3)N(C3CCCC3)C2=O)c(C)n1-c1ccc(Cl)cc1 | > 100 µM | > 100 µM | > 100 µM | > 100 µM | > 100 µM | > 100 µM | > 100 µM | > 100 µM | > 100 µM | > 100 µM | > 100 µM | > 100 µM | > 100 µM | > 100 µM | > 100 µM | > 100 µM | > 100 µM | > 100 µM | > 100 µM | > 100 µM
9 | NC(=O)c1c[se]c(C2OC(CO)C(O)C2O)n1 (stereo not drawn) | > 100 µM | > 100 µM | > 100 µM | > 45 µM | > 100 µM | > 100 µM | > 100 µM | > 100 µM | > 100 µM | > 100 µM |  |  |  |  |  |  |  |  |  | 
10 | COC(=O)c1c(-c2ccccc2)cc2c3cc(-c4ccccc4)c(C(=O)OC)n3c3ccccc3n12 | > 100 µM | > 100 µM | > 100 µM | > 100 µM | > 100 µM | > 100 µM | > 100 µM | > 100 µM | > 31.6 µM | > 100 µM |  |  |  |  |  |  |  |  |  | 
